Reference: patent publication US9730442B2, “Use of 4-phenylbutyric acid for improving the tolerance of plants to harmful biological organisms” (INSTITUT DE RECHERCHE POUR LE DÉVELOPPEMENT (IRD), priority 2012, dated 2017)

What was measured:
[1] = system: hypersensitive cell death induced by Xanthomonas campestris pv. malvacearum (Xcm, race 18); experiment: Hypersensitive cell death induced by Xcm infiltration into cotton plant cotyledons; assay type: in vivo, Gossypium hirsutum; details: 4-PBA 2 mM co-infiltrated with Xcm race 18 at 10^8 cfu/ml; four days after inoculation; FIG. 1
Description: (§1) A stock solution of 4-PBA (10 mM) was prepared extemporaneously by dissolving powder in sterile distilled water. In order to allow complete dissolution of the 4-PBA, the solution was heated at 50° C. for 10 minutes.
The Xanthomonas campestris pv. malvacearum bacteria (Xcm, race 18) were cultured overnight in a rich nutritive medium (King B). After sedimentation by centrifugation, said bacteria were washed with sterile distilled water before being resuspended at a concentration of 10^8 cfu/ml. The resuspending of the cells is carried out either in sterile distilled water, or in a solution of 4-PBA at 2 mM. These two types of suspensions were infiltrated into cotton plant (Gossypium hirsutum) cotyledons on each side of the central vein for comparison.

[2] = system: hypersensitive cell death induced by Pseudomonas syringae pv. tomato (Pst, avirulent strain DC3000::AvrRpt2); experiment: Hypersensitive cell death induced by Pst infiltration into Arabidopsis thaliana leaves; assay type: in vivo; details: 4-PBA 1 mM co-infiltrated with Pst DC3000::AvrRpt2 at 10^7 cfu/ml; six days post-inoculation; FIG. 2
Description: as §1
The bacteria (Pst, avirulent strain DC3000::AvrRpt2) were cultured overnight in a rich nutritive medium (King B). After sedimentation by centrifugation, said bacteria were washed with sterile distilled water before being resuspended at a concentration of 10^7 cfu/ml. The resuspending of the cells is carried out either in sterile distilled water, or in a solution of 4-PBA at 1 mM. These suspensions were then infiltrated into the leaves of the Arabidopsis thaliana rosette. The macroscopic symptoms were monitored over a period of six days post-inoculation.

[3] = system: genes encoding BiP1,2, BiP3, CNX1 and CRT1; experiment: Real-time quantitative PCR of endoplasmic reticulum chaperone genes in A. thaliana leaves; assay type: in vivo, Arabidopsis thaliana; details: 44 hours post-inoculation, FIG. 3
Description: The 4-PBA solutions used in the experiments described hereinafter were prepared as described in Example 1.
The infection with Pst (avirulent strain DC3000::AvrRpt2) was carried out under the same conditions as those described above. An additional condition was added, corresponding to the infiltration of a solution of 4-PBA (1 mM) alone into the A. thaliana leaves.
Samples were harvested 44 hours post-inoculation, frozen in liquid nitrogen and then stored at −80° C. until total RNA extraction. The total RNA was reverse transcribed so as to synthesize cDNAs. These cDNAs were used as a template in real-time quantitative PCR experiments. Primers specific for the genes encoding the binding proteins (BiP1,2 and BiP3), calnexin 1 (CNX1) and calreticulin 1 (CRT1) were designed so as to measure the expression of these genes. The expression of the genes of interest was standardized with respect to that of an actin gene. These experiments were repeated once, including one as a duplicate per experiment.

[4] = system: tobacco leaves (plant cells); experiment: Concentration range infiltrated into tobacco leaves, macroscopic symptoms; assay type: in vivo, Nicotiana tabacum; details: 4-PBA at 0.5, 1, 2.5 and 5 mM infiltrated into tobacco leaves; 48 hours post-infiltration; FIG. 4A
Description: (§2) The concentration range presented in FIG. 4A was produced by infiltration into tobacco leaves of 4-PBA solutions at 0.5, 1, 2.5 and 5 mM. The macroscopic symptoms were evaluated 48 hours post-infiltration. Samples were also harvested at the times indicated in FIG. 4B and treated as described above so as to be analyzed by real-time quantitative PCR. Primers specific for all of the nine genes encoding BiP proteins were designed for this purpose.

[5] = system: genes encoding BiP proteins; experiment: Real-time quantitative PCR of BiP genes in tobacco leaves; assay type: in vivo, Nicotiana tabacum; details: 4-PBA infiltrated into tobacco leaves; FIG. 4B
Description: as §2

Xcm race 20 = experiment: In vitro bacterial growth in King B liquid medium, absorbance at 600 nm; assay type: cell-based, Xanthomonas campestris pv. malvacearum; details: 4-PBA 1 mM in King B liquid medium; approximately 16 hours, 30° C.; FIG. 5
Description: The effect of 4-PBA on phytopathogenic bacteria was tested in vitro on the bacterial strain Xcm race 20. The strain was cultured in King B liquid medium in the presence or absence of 4-PBA. The 4-PBA solution was prepared extemporaneously as described above. The nutritive medium was inoculated either using glycerol stocks, or using bacterial colonies freshly cultured in solid medium. The nutritive medium was then supplemented with the 4-PBA solution in order to achieve a final concentration of 1 mM (final volume of 10 ml). […] The tubes were then incubated overnight (approximately 16 hours) with gentle shaking at 30° C. The bacterial growth was then measured by nephelometry by measuring the absorbance of an aliquot of the bacterial cultures at 600 nm. This experiment was repeated three times. Each experiment contained one technical triplicate per condition, i.e. condition with 4-PBA and condition without 4-PBA.

[6] = system: hypersensitive cell death induced by cryptogein; experiment: Hypersensitive cell death induced in tobacco by cryptogein (data not shown); assay type: in vivo
Description: (§3) The effect of 4-PBA on cell death of hypersensitive nature was tested on several pathosystems, including those presented in FIGS. 1 & 2, namely Gossypium hirsutum/Xanthomonas campestris pv. malvacearum and Arabidopsis thaliana/Pseudomonas syringae. pv. tomato, respectively. […] The latter data concern hypersensitive cell death induced in tobacco by an elicitor of fungal origin, cryptogein, and nonhost hypersensitive cell death in tobacco interacting with the bacterium Pseudomonas syringae pv. tomato.

[7] = system: nonhost hypersensitive cell death induced by Pseudomonas syringae pv. tomato; experiment: Nonhost hypersensitive cell death in tobacco interacting with Pseudomonas syringae pv. tomato (data not presented); assay type: in vivo
Description: as §3

Structure (SMILES): O=C(O)CCCc1ccccc1 [4-PBA, 4-phenylbutyric acid]
- hypersensitive symptoms (macroscopic) in cotton plant cotyledonary leaves [1]: strongly represses the hypersensitive symptoms
- hypersensitive symptoms (macroscopic) in A. thaliana leaves [2]: capable of abolishing the hypersensitive symptoms
- expression of genes encoding chaperone proteins (BiP1,2, BiP3, CNX1, CRT1) ([3]; 4-PBA 1 mM infiltrated alone, standardized to actin): significantly induce the expression of genes encoding chaperone proteins
- expression of BiP1,2, CNX1 and CRT1 genes, 4-PBA combined with Pst infection ([3]; 4-PBA 1 mM plus Pst): synergistic effect
- toxicity to plant cells (macroscopic symptoms) [4]: not toxic to the plant cells
- BiP gene expression in tobacco [5]: capable of inducing BiP gene expression in tobacco
- bacterial growth (absorbance at 600 nm) (Xcm race 20): strongly inhibits the growth
- hypersensitive cell death induced by cryptogein in tobacco [6]: repress hypersensitive cell death
- nonhost hypersensitive cell death in tobacco with Pseudomonas syringae pv. tomato [7]: confirm the anti-cell death properties
